Results as given in publication PMC9317327, “Functional Characterization, Antimicrobial Effects, and Potential Antibacterial Mechanisms of NpHM4, a Derived Peptide of Nautilus pompilius Hemocyanin” (Marine Drugs, 2022).
pIC50: −log10 of the molar value. ≈ marks a conversion by molar mass, not a printed value. Where a SMILES comes first, the peptide text is derived from it.

Experiments:
[1] = test system: Bacillus subtilis ATCC 6051; format: cell-based; conditions: ATCC 6051, 2 h, pH 7.2
Procedure: (§1) The antimicrobial activity of the peptides was determined against Gram-negative bacteria, including V. alginolyticus (A056), E. coli (DH5α), and V. parahaemolyticus (2013V-1174), which were obtained from the South China Sea Institute of Oceanology, Chinese Academy of Sciences. The activity was also tested against the Gram-positive bacteria S. aureus ATCC 25923 and B. subtilis ATCC 6051. To assess the antimicrobial activities of the peptides, bacterial cells were cultured to the logarithmic growth phase and then diluted to 10^6–1.5 × 10^7 CFU/mL with PBS (0.01 M, pH 7.2). Equal volumes of serially diluted peptides, with concentrations ranging from 30 to 450 μM in PBS, and bacteria suspension were mixed and incubated at room temperature for 2 h, respectively. Then, 6 μL of each serially diluted mixture was plated on sterile 12-well agar plates, followed by incubation for 11 to 12 h, and the colonies were assessed to determine the MICs and MBCs. The MICs were expressed (in µM) as an [a]–[b] concentration interval, where [a] is the highest peptide concentration at which bacteria were growing and [b] is the lowest concentration that caused 100% growth inhibition. Cultures without peptides were employed as controls. All the tests were performed in triplicate and repeated three times.

Escherichia coli (DH5α) = format: cell-based; conditions: DH5α, 2 h, pH 7.2
Procedure: as §1

[2] = test system: Staphylococcus aureus ATCC 25923; format: cell-based; conditions: ATCC 25923, 2 h, pH 7.2
Procedure: as §1

[3] = test system: Vibrio alginolyticus (A056); format: cell-based; conditions: 2 h, pH 7.2
Procedure: as §1

[4] = test system: Vibrio parahaemolyticus 2013V-1174; format: cell-based; conditions: 2 h, pH 7.2
Procedure: as §1

[5] = test system: Vibrio alginolyticus (A056); format: cell-based; conditions: 2 h
[6] = test system: Vibrio parahaemolyticus 2013V-1174; format: cell-based; conditions: 2 h
E. coli = conditions: cited from earlier work
Procedure: In order to explore the antibacterial activity of the six predicted AMPs, the minimal inhibitory concentrations (MICs) and the minimal bactericidal concentrations (MBCs) of chemically synthesized NpHN1–NpHN6 peptides were measured against Gram-negative bacteria (Vibrio alginolyticus and Escherichia coli). […] The GR ...

Bacillus megaterium = conditions: cited from earlier work
Staphylococcus aureus = conditions: cited from earlier work

Compound | MBC [1] | MIC [1] | MBC (Escherichia coli (DH5α)) | MIC (Escherichia coli (DH5α)) | MBC [2] | MIC [2] | MBC [3] | MIC [3] | MBC [4] | MIC [4] | pIC50 [5] | pIC50 [6] | MBC (E. coli) | MBC (Bacillus megaterium) | MBC (Staphylococcus aureus)
CC[C@H](C)[C@H](NC(=O)CNC(=O)[C@H](Cc1c[nH]cn1)NC(=O)[C@H](CCCNC(=N)N)NC(=O)[C@H](CC(C)C)NC(=O)[C@H](Cc1ccccc1)NC(=O)CNC(=O)[C@H](C)NC(=O)[C@H](Cc1ccccc1)NC(=O)[C@@H](NC(=O)[C@@H](N)CCCNC(=N)N)C(C)C)C(=O)N[C@@H](CCCCN)C(=O)N[C@@H](CCCNC(=N)N)C(=O)N[C@@H](CO)C(=O)N[C@@H](CCCNC(=N)N)C(=O)O [NpHM4] (H-RVFAGFLRHGIKRSR-OH) | >50 µM | >50 µM | >150 µM | 50 to 150 µM | >50 µM | >50 µM | 30 µM (≈ 54 µg/mL) | 5 to 25 µM | 50 µM (≈ 90 µg/mL) | 15 to 45 µM | 4.91 | 4.49 |  |  | 
GSTSFHLIYNKWFAVKRRRKR [GR21] |  |  |  |  |  |  |  |  |  |  |  |  | below 25 μM | below 25 μM | below 25 μM
